Columns and labels:
noise-damaged cochlea [1] = experiment: Hair cell number after systemic LY411575 in noise-damaged mice; format: in vivo, mouse; conditions: oral 50 mg/kg for 5 d
Method: (§1) 4-week-old mice were exposed free-field, awake and unrestrained, in a small reverberant chamber (22). Acoustic trauma was produced by a 2 h exposure to an 8-16 kHz octave band noise presented at 116 dB SPL. The exposure stimulus was generated by a custom white-noise source, filtered (Brickwall Filter with a 60 dB/octave slope), amplified (Crown power amplifier), and delivered (JBL compression driver) through an exponential horn fitted securely to a hole in the top of a reverberant box.
(§2) For systemic administration, LY411575 (50 mg/kg) dissolved in 0.5% (wt/vol) methylcellulose (WAKO) was injected orally once daily for 5 consecutive d. Hearing was measured by ABR at 1 d before, 2 d, 1, 2 week, 1, 2 and 3 months after noise exposure.
(§3) For collection of mature mouse cochleae, after being deeply anesthetized with ketamine and xylazine, the mice were transcardially perfused with 0.01 M phosphate buffer (pH 7.4) containing 8.6% sucrose, followed by fixative consisting of freshly depolymerized 4% paraformaldehyde in 0.1 M phosphate buffer (pH 7.4). […] Primary antibodies were detected with secondary antibodies conjugated with Alexa 488, 568, and 647 (Molecular Probes) and viewed by confocal fluorescence microscopy (TCS SP5, Leica). […]
Cell counting for spheres was performed with MetaMorph software. The cell number was determined from DAPI- or Hoechst-positive nuclei. […]

noise-damaged cochlea [2] = experiment: ABR after systemic LY411575 in noise-damaged mice; format: in vivo, mouse
Method: as §1
[…] Hearing was measured by ABR at 1 d before, 2 d, 1, 2 week, 1, 2 and 3 months after noise exposure.
Mice were anesthetized with ketamine (100 mg/kg i.p.) and xylazine (20 mg/kg i.p.). Needle electrodes were inserted at vertex and pinna, with a ground near the tail. ABRs were evoked with 5-ms tone pips (0.5-ms rise-fall with a cos^2 onset envelope delivered at 35/s). The response was amplified, filtered and averaged in a LabVIEW-driven data-acquisition system. Sound level was raised in 5 dB steps from ≥10 dB below threshold <80 dB SPL. At each sound level, 1024 responses were averaged (with stimulus polarity alternated), using an “artifact reject,” whereby response waveforms were discarded when peak-to-peak response amplitude exceeded 15 μV. […] For amplitude versus level functions, the wave I peak was identified by visual inspection at each sound level and the peak-to-peak amplitude computed.

deafened mature cochlea = experiment: Hair cell and supporting cell counts in deafened mature cochlea after round window administration; format: in vivo, mouse
Method: as §1
4-week-old mice weighing 12 to 16 g were used. Before surgery, the animals were anesthetized with ketamine (20 mg/kg, i.p.) and xylazine (100 mg/kg, i.p.), and an incision was made posterior to the pinna near the external meatus after local administration of lidocaine (1%). The otic bulla was opened to approach the round window niche. The end of a piece of PE 10 tubing (Becton Dickinson) was drawn to a fine tip in a flame and gently inserted into the round window niche. LY411575 was dissolved in DMSO and diluted 10-fold in polyethylene glycol 400 (Sigma) to a final concentration of 4 mM. This solution (total volume 1 μl) was injected into the round window niche of the left ear. Polyethylene glycol 400 with 10% DMSO was injected into the right ear as a control. The solution was administered for 2 min. This approach is presently used clinically (e.g. transtympanic injection of steroids for sudden hearing loss and gentamicin for severe balance disorders) and has the advantage of sparing the […] but still taking advantage of the local route provided by the round window membrane for delivery of drug into the inner ear (50). Gelatin was placed on the niche to maintain the solution, and the wound was closed.
as §3, with “7.4). After decapitation, the temporal bones were removed and immediately placed in the same fixative at 4° C. Small openings were made at the round window, oval window, and apex of the cochlea.” for “7.4).”
Cell counting for spheres was performed with MetaMorph software. The cell number was determined from DAPI- or Hoechst-positive nuclei. […] For explants, inner hair cells, outer hair cells, and supporting cells in the outer hair cell region were counted on cochlear whole mounts. […]

[3] = Toxicity of systemic LY411575; format: in vivo; conditions: 50 mg/kg for 5 d
Method: as §2
Preliminary range finding experiments for drug treatment were carried out by systemic injection and were limited by toxicity. A minimal dosing regimen for an effect on the thymus weight was chosen (43, 44).

## C[C@H](NC(=O)[C@@H](O)c1cc(F)cc(F)c1)C(=O)N[C@@H]1C(=O)N(C)c2ccccc2-c2ccccc21 [LY411575, N-2((2S)-2-(3,5-difluorophenyl)-2-hydroxyethanoyl)-N1-((7S)-5-methyl-6-oxo-6,7-dihydro-5H-dibenzo[b,d]azepin-7-yl)-l-alaninamide]
noise-damaged cochlea [1]
  outer hair cell numbers: increased
noise-damaged cochlea [2]; 10 mg/kg body weight
  therapeutic benefit at lower dose: no therapeutic benefit
noise-damaged cochlea [2]; oral 50 mg/kg for 5 d, 4, 8 and 16 kHz
  noise-induced ABR threshold shift: decreased
Deafened mature cochlea; 3 months, treated group
  numbers of inner hair cells: no significant changes
Deafened mature cochlea; 3 months, 8-16 kHz, p<0.05
  number of outer hair cells compared to carrier-treated contralateral ear: increased
Deafened mature cochlea; 3 months, 8 and 11.3 kHz areas, p<0.05
  number of supporting cells in the outer hair cell region compared to carrier-treated ear: decreased significantly
Deafened mature cochlea; above 22 kHz, with and without LY411575
  outer hair cells in the most basal regions: completely absent
[3]
  side-effects in treated mice: significant side-effects
  thymus total number of cells decreased to: 1/40
[3]; deaths due to severe diarrhea and weight loss
  mice (of 12) that could be tested for ABR at 3 months; the rest died within the first week: 6 mice
[3]; decreased from 78.6%
  thymus double positive fraction of CD4 and CD8 after treatment: 1.23%
[3]; in 3 d
  weight loss in surviving mice: approximately 15%
[3]; in a week
  spleen finding: severe atrophy

Source: US12161647B2, “Treating hearing loss” (Massachusetts Eye and Ear Infirmary, priority 2012, dated 2024)
